How the values were obtained:
Assay in all cases: relative viability (nuclei count vs DMSO), 5 days (fraction); higher = more cells survive
[1] = system: NCI-H1648
Summary of the method: (§1)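 Cells from lung cancer lines were seeded into 1536-well plates and, one day later, dosed by pin tool. Treatments were either a single drug or a fixed dose of an anchor drug with five library-drug doses (not always all listed) in √10 steps. After 5 days, nuclei were stained in a one-step fixation (final 0.05% Triton X-100, 1% formaldehyde, 1 ug/ml Hoechst) and counted on 4× images, and relative viability is the treated-to-vehicle nuclei ratio, as the median of duplicate plates.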

[2] = system: IA-LM
Summary of the method: as §1

[3] = system: NCI-H2342
Summary of the method: as §1

[4] = system: NCI-H522
Summary of the method: as §1

[5] = system: SW 900
Summary of the method: as §1

[6] = system: A549
Summary of the method: as §1

[7] = system: NCI-H1299
Summary of the method: as §1

[8] = system: NCI-H1703
Summary of the method: as §1

[9] = system: Calu-6
Summary of the method: as §1

[10] = system: EBC-1
Summary of the method: as §1

SMILES: O=C(O)CCCCC(CCSCc1ccccc1)SCc1ccccc1 (centres undefined) [CPI-613] + O=C(CCCCCCC(=O)Nc1ccccc1)NO [Vorinostat] (partner 1 µM)
- relative viability ([1]; first compound 5 µM): 0.527
- relative viability ([1]; first compound 15.81 µM): 0.336
- relative viability ([1]; first compound 50 µM): 0.422
- relative viability ([1]; first compound 158.11 µM): 0.142
- relative viability ([1]; first compound 500 µM): 0.0754
- relative viability ([2]; first compound 5 µM): 0.876
- relative viability ([2]; first compound 15.81 µM): 0.869
- relative viability ([2]; first compound 50 µM): 0.685
- relative viability ([2]; first compound 500 µM): 0.937
- relative viability ([3]; first compound 5 µM): 0.648
- relative viability ([3]; first compound 15.81 µM): 0.629
- relative viability ([3]; first compound 50 µM): 0.721
- relative viability ([3]; first compound 158.11 µM): 0.763
- relative viability ([3]; first compound 500 µM): 0.939
- relative viability ([4]; first compound 5 µM): 0.841
- relative viability ([4]; first compound 15.81 µM): 0.812
- relative viability ([4]; first compound 50 µM): 0.833
- relative viability ([4]; first compound 158.11 µM): 0.741
- relative viability ([4]; first compound 500 µM): 0.244
- relative viability ([5]; first compound 5 µM): 0.512
- relative viability ([5]; first compound 50 µM): 0.555
- relative viability ([5]; first compound 158.11 µM): 0.316
- relative viability ([5]; first compound 500 µM): 0.0227

SMILES: O=C(O)CCCCC(CCSCc1ccccc1)SCc1ccccc1 (centres undefined) [CPI-613] + O=C(c1cc(Cc2n[nH]c(=O)c3ccccc23)ccc1F)N1CCN(C(=O)C2CC2)CC1 [Olaparib] (partner 8 µM)
- relative viability ([1]; first compound 5 µM): 0.878
- relative viability ([1]; first compound 15.81 µM): 0.976
- relative viability ([1]; first compound 50 µM): 1.01
- relative viability ([1]; first compound 158.11 µM): 0.255
- relative viability ([1]; first compound 500 µM): 0.0437
- relative viability ([6]; first compound 5 µM): 0.301
- relative viability ([6]; first compound 15.81 µM): 0.371
- relative viability ([6]; first compound 50 µM): 0.301
- relative viability ([6]; first compound 158.11 µM): 0.335
- relative viability ([6]; first compound 500 µM): 0.327
- relative viability ([2]; first compound 5 µM): 0.881
- relative viability ([2]; first compound 15.81 µM): 0.751
- relative viability ([2]; first compound 50 µM): 0.866
- relative viability ([2]; first compound 158.11 µM): 0.537
- relative viability ([2]; first compound 500 µM): 0.656
- relative viability ([3]; first compound 5 µM): 0.472
- relative viability ([3]; first compound 15.81 µM): 0.432
- relative viability ([3]; first compound 50 µM): 0.5
- relative viability ([3]; first compound 158.11 µM): 0.461
- relative viability ([3]; first compound 500 µM): 0.412
- relative viability ([7]; first compound 5 µM): 0.942
- relative viability ([7]; first compound 15.81 µM): 1.01
- relative viability ([7]; first compound 50 µM): 0.903
- relative viability ([7]; first compound 158.11 µM): 0.909
- relative viability ([7]; first compound 500 µM): 0.968
- relative viability ([4]; first compound 5 µM): 0.589
- relative viability ([4]; first compound 15.81 µM): 0.533
- relative viability ([4]; first compound 50 µM): 0.681
- relative viability ([4]; first compound 158.11 µM): 0.453
- relative viability ([4]; first compound 500 µM): 0.346
- relative viability ([8]; first compound 5 µM): 0.411
- relative viability ([8]; first compound 15.81 µM): 0.453
- relative viability ([8]; first compound 50 µM): 0.499
- relative viability ([8]; first compound 158.11 µM): 0.36
- relative viability ([8]; first compound 500 µM): 0.403
- relative viability ([5]; first compound 5 µM): 0.873
- relative viability ([5]; first compound 50 µM): 0.823
- relative viability ([5]; first compound 158.11 µM): 0.33
- relative viability ([5]; first compound 500 µM): 0.0124
- relative viability ([9]; first compound 5 µM): 0.525
- relative viability ([9]; first compound 50 µM): 0.521
- relative viability ([9]; first compound 158.11 µM): 0.433
- relative viability ([9]; first compound 500 µM): 0.401
- relative viability ([10]; first compound 5 µM): 0.698
- relative viability ([10]; first compound 15.81 µM): 0.33
- relative viability ([10]; first compound 50 µM): 0.589
- relative viability ([10]; first compound 158.11 µM): 0.512
- relative viability ([10]; first compound 500 µM): 0.49

SMILES: O=c1[nH]c2ccccc2n1C1CCN(CCCC(c2ccc(F)cc2)c2ccc(F)cc2)CC1 [Pimozide] + NC(=O)Nc1cc(-c2cccc(F)c2)sc1C(=O)N[C@H]1CCCNC1 [AZD7762] (partner 0.2 µM)
- relative viability ([1]; first compound 0.08 µM): 0.568
- relative viability ([1]; first compound 0.8 µM): 0.52
- relative viability ([1]; first compound 2.53 µM): 0.584
- relative viability ([1]; first compound 8 µM): 0.698
- relative viability ([3]; first compound 0.08 µM): 0.524
- relative viability ([3]; first compound 0.253 µM): 0.526
- relative viability ([3]; first compound 0.8 µM): 0.465
- relative viability ([3]; first compound 2.53 µM): 0.48
- relative viability ([3]; first compound 8 µM): 0.492
- relative viability ([4]; first compound 0.08 µM): 0.963
- relative viability ([4]; first compound 0.253 µM): 0.835
- relative viability ([4]; first compound 0.8 µM): 0.857
- relative viability ([4]; first compound 2.53 µM): 0.77
- relative viability ([4]; first compound 8 µM): 0.872
- relative viability ([8]; first compound 0.08 µM): 0.129
- relative viability ([8]; first compound 0.253 µM): 0.109
- relative viability ([8]; first compound 0.8 µM): 0.0889
- relative viability ([8]; first compound 2.53 µM): 0.1
- relative viability ([8]; first compound 8 µM): 0.122
- relative viability ([5]; first compound 0.08 µM): 0.524
- relative viability ([5]; first compound 0.253 µM): 0.599
- relative viability ([5]; first compound 2.53 µM): 0.591
- relative viability ([5]; first compound 8 µM): 0.478

From the supplement of paper PMC10307832
